Laboratory results reported in patent US10670605B2, “Cysteine reactive probes and uses thereof” (The Scripps Research Institute, priority 2015, dated 2020).
One block for each compound: values may come before it.

Experiments:
Assay in all cases: Competitive isoTOP-ABPP in situ (fragment-treated cells)
Assay type in all cases: cell-based
[1] = molecular target: T1, cysteines in MDA-MB-231 and Ramos cells (Homo sapiens, UniProt P24468)
T1 sequence (P24468 1-414): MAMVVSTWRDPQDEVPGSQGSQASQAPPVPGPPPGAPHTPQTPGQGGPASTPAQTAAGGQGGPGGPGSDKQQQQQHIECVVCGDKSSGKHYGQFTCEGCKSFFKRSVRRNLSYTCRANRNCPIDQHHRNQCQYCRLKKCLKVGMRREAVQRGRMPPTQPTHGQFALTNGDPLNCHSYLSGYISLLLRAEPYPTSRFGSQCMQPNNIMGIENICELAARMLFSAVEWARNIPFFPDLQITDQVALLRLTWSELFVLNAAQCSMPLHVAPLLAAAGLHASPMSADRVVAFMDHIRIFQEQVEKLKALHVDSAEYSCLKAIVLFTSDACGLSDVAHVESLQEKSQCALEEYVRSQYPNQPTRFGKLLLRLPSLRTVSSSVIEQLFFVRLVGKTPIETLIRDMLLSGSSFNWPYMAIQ

[2] = molecular target: T2, cysteines in MDA-MB-231 and Ramos cells (Homo sapiens, UniProt Q15398)
T2 sequence (Q15398 1-846): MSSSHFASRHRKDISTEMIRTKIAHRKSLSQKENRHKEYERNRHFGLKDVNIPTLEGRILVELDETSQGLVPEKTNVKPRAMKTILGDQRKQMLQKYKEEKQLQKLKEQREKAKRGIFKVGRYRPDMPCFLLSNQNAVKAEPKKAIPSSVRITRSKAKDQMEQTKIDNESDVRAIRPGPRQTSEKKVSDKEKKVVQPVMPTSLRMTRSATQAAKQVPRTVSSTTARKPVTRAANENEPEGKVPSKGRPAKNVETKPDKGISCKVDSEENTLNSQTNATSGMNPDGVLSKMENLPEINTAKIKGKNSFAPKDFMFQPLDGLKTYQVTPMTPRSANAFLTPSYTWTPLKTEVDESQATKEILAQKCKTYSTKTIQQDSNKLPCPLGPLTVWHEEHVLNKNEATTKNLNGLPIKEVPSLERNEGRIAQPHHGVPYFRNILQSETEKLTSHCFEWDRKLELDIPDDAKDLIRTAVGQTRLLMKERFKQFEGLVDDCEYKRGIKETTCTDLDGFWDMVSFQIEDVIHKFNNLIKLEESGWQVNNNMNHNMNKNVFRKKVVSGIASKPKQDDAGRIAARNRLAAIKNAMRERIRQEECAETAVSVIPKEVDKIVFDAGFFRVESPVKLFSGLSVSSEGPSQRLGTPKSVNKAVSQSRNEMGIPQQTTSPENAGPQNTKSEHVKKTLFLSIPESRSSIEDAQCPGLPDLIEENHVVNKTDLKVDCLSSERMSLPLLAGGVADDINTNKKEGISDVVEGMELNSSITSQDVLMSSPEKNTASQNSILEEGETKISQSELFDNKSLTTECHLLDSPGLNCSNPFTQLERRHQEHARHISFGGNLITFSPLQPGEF

[3] = molecular target: T3, cysteines in MDA-MB-231 and Ramos cells (Homo sapiens, UniProt O00244)
T3 sequence (O00244 1-68): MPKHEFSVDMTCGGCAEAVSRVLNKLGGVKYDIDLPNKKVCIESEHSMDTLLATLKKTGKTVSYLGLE

[4] = molecular target: T4, cysteines in MDA-MB-231 and Ramos cells (Homo sapiens, UniProt O14733); details: 200 μM, insitu
T4 sequence (O14733 1-419): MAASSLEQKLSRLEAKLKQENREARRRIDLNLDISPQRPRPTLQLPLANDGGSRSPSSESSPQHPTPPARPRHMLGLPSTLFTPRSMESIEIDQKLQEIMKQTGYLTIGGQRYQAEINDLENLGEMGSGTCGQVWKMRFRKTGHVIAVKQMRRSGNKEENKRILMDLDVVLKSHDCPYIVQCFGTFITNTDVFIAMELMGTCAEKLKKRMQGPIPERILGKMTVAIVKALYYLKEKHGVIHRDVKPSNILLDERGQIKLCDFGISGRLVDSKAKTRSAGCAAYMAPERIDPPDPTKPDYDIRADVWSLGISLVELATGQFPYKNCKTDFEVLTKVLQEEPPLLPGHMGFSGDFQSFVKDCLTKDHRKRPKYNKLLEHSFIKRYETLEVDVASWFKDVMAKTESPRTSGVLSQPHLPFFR

[5] = molecular target: T5, cysteines in MDA-MB-231 and Ramos cells (Homo sapiens, UniProt O75717)
T5 sequence (O75717 1-1129): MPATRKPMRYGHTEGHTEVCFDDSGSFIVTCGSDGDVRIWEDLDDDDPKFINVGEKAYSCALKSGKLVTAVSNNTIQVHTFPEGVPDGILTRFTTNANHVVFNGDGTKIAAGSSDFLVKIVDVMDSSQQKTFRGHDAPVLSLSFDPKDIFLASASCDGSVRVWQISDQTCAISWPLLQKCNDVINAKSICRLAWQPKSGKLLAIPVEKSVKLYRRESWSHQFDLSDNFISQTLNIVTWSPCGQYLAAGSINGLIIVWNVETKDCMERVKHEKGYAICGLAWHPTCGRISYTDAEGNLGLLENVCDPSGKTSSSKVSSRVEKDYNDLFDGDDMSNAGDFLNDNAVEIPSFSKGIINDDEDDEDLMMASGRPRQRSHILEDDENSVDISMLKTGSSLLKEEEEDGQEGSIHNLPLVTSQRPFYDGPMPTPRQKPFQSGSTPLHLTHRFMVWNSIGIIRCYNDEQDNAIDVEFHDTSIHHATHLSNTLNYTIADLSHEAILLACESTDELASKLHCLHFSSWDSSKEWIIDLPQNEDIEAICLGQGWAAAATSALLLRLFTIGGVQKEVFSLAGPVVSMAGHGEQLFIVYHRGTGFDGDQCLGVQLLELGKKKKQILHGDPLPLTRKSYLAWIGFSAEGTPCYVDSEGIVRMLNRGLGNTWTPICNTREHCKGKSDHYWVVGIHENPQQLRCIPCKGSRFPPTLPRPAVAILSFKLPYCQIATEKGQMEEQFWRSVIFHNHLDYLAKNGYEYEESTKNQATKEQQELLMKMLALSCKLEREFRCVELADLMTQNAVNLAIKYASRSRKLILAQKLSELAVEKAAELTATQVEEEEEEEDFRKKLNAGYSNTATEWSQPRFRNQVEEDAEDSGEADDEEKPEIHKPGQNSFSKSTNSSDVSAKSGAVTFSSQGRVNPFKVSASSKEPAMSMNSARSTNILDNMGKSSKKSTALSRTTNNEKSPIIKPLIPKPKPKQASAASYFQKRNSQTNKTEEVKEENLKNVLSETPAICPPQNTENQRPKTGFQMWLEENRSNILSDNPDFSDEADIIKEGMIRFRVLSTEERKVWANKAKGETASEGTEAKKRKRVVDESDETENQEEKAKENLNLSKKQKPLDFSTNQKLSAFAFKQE

- isoTOP-ABPP reactivity P24468_C326 NR2F2 ([1]; 200 μM, insitu, 231): 20.0
- isoTOP-ABPP reactivity Q15398_C129 DLGAP5 ([2]; 200 μM, insitu, 231): 20.0
SMILES: COc1ccc2c(c1)CCCN2C(=O)CCl [compound 2]

- isoTOP-ABPP ratio P24468_C326 ([1]; 200 μM, insitu, 231): 1.2
- isoTOP-ABPP ratio O00244_C12 ([3]; 200 μM, insitu, 231): 0.4
- isoTOP-ABPP ratio Q15398_C129 ([2]; 200 μM, insitu, 231): 0.5
SMILES: CC(C)CCOCCNC(=O)CCl [compound 27]

- isoTOP-ABPP ratio, cysteine O14733_C131 [4]; 231: 1.7
SMILES: O=C(CCl)NC(=O)NC12CC3CC(CC(C3)C1)C2 [compound 12]

- isoTOP-ABPP ratio, cysteine P24468_C326 ([1]; 200 μM, insitu, 231): 1.1
- isoTOP-ABPP ratio, cysteine O00244_C12 ([3]; 200 μM, insitu, 231): 0.7
- isoTOP-ABPP ratio, cysteine O14733_C131 [4]; 231: 0.7
SMILES: O=C(CCl)NC12CC3CC(CC(C3)C1)C2 [compound 21]

- isoTOP-ABPP ratio, cysteine P24468_C326 ([1]; 200 μM, insitu, 231): 20.0
- isoTOP-ABPP ratio, cysteine O75717_C773 ([5]; 200 μM, insitu, 231): 2.2
- isoTOP-ABPP ratio, cysteine O00244_C12 ([3]; 200 μM, insitu, 231): 2.1
- isoTOP-ABPP ratio, cysteine O14733_C131 [4]; 231: 1.8
SMILES: O=C(CCl)N1CCN(S(=O)(=O)c2ccccc2F)CC1 [compound 10]

- isoTOP-ABPP ratio P24468_C326 ([1]; 200 μM, insitu, 231): 0.8
- isoTOP-ABPP ratio O75717_C773 ([5]; 200 μM, insitu, 231): 1.0
- isoTOP-ABPP ratio O14733_C131 [4]; 231: 0.8
SMILES: Cc1ccc(C=C(C#N)C(=O)NCCN2CCOCC2)cc1 [compound 41]

- isoTOP-ABPP ratio, cysteine P24468_C326 ([1]; 100 μM in situ 231): 0.9
- isoTOP-ABPP ratio, cysteine O75717_C773 ([5]; 100 μM in situ 231): 1.2
- isoTOP-ABPP ratio, cysteine O00244_C12 ([3]; 100 μM in situ 231): 0.7
- isoTOP-ABPP ratio, cysteine Q15398_C129 ([2]; 100 μM in situ 231): 0.6
SMILES: Cn1cc(S(=O)(=O)N2CCOCC2)cc1C(=O)NC(=O)CCl [compound 11]

- isoTOP-ABPP ratio P24468_C326 ([1]; 200 μM, insitu, 231): 20.0
- isoTOP-ABPP ratio O75717_C773 ([5]; 200 μM, insitu, 231): 3.6
SMILES: CC1CCc2ccccc2N1C(=O)CCl (stereo not shown) [compound 45]

- isoTOP-ABPP ratio Q15398_C129 ([2]; 200 μM, insitu, 231): 7.4
SMILES: O=C(CCl)Nc1cccc2ncccc12 [compound 51]

- isoTOP-ABPP ratio O75717_C773 ([5]; 200 μM, insitu, 231): 2.3
- isoTOP-ABPP ratio O14733_C131 [4]; 231: 20.0
- isoTOP-ABPP ratio Q15398_C129 ([2]; 200 μM, insitu, 231): 1.4
SMILES: C=CC(=O)Nc1cc(F)c(N2CCN(C(=O)OC(C)(C)C)CC2)c(F)c1 [compound 38]

- isoTOP-ABPP reactivity P24468_C326 NR2F2 ([1]; 200 μM, insitu, 231): 20.0
- isoTOP-ABPP reactivity O75717_C773 WDHDl ([5]; 200 μM, insitu, 231): 4.2
SMILES: COc1cc2c(cc1OC)CN(C(=O)CCl)CC2 [compound 8]

- isoTOP-ABPP ratio Q15398_C129 ([2]; 200 μM, insitu, ramos): 2.4
SMILES: C=CC(=O)N(Cc1cccnc1)c1cc(C(F)(F)F)cc(C(F)(F)F)c1 [compound 31]

- isoTOP-ABPP ratio, cysteine O75717_C773 ([5]; 200 μM, insitu, 231): 1.1
- isoTOP-ABPP ratio, cysteine O00244_C12 ([3]; 200 μM, insitu, 231): 1.5
- isoTOP-ABPP ratio, cysteine O14733_C131 ([4]; ramos): 1.6
SMILES: O=C(CCl)NCCc1c[nH]c2ccccc12 [compound 13]

SMILES: O=C(CCl)N1CCC(Cc2ccccc2)CC1 [compound 9]
- isoTOP-ABPP reactivity O00244_C12 ATOX1 ([3]; 200 μM, insitu, 231): 4.7

- isoTOP-ABPP reactivity P24468_C326 NR2F2 ([1]; 100 μM in situ 231): 20.0
SMILES: COc1ccc(C2CC(c3cccs3)=NN2C(=O)CCl)cc1 (stereo not shown) [compound 4]

- isoTOP-ABPP ratio O00244_C12 ([3]; 200 μM, insitu, ramos): 1.4
- isoTOP-ABPP ratio O14733_C131 ([4]; ramos): 1.0
- isoTOP-ABPP ratio Q15398_C129 ([2]; 200 μM, insitu, ramos): 1.2
SMILES: O=C(CCl)N1CCN(CC(=O)N2CCOCC2)CC1 [compound 29]
